Test results as given in US7569724B2, “Carbamic acid compounds comprising an amide linkage as HDAC inhibitors” (Topotarget UK Limited, priority 2000, dated 2009).
Like-named read-outs stand apart in the source and are kept apart here.

Assays:
JURKAT human T-cell line = assay: Secondary assay: cell proliferation WST-1, Jurkat; assay type: cell-based; details: 48 h, read-out: Cell Proliferation Inhibition WST-1 (IC50 unless otherwise specified) Jurkat
[1] = tested on: NHEK-Ad primary human adult keratinocyte line; assay: Secondary assay: cell proliferation WST-1, NHEK-Ad; assay type: cell-based; details: 48 h, read-out: Cell Proliferation Inhibition WST-1 (IC50 unless otherwise specified) NHEK-AD
Experimental: Compounds with HDAC inhibition activity, as determined using the primary assay, were subsequently evaluated using secondary cell-based assays. The following cell lines were used:
NHEK-Ad—Primary human adult keratinocyte line (Cambrex Corp., East Rutherford, N.J., USA).
Cells were plated in 96-well plates at 3-10×10^3 cells/well in 100 μL of culture medium. The following day, different concentrations of candidate compounds were added and the cells incubated at 37° C. for 48 h. Subsequently, 10 μL/well of WST-1 reagent was added and the cells reincubated for 1 hour. After the incubation time, absorbance was measured.
WST-1 is a tetrazolium salt which is cleaved to formazan dye by cellular enzymes. An expansion in the number of viable cells results in an increase in the overall activity of mitochondrial dehydrogenases in the sample. This augmentation in the enzyme activity leads to an increase in the amount of formazan dye formed, which directly correlates to the number of metabolically active cells in the culture. The formazan dye produced is quantified by a scanning multiwell spectrophotometer by measuring the absorbance of the dye solution at 450 nm wavelength (reference wavelength 690 nm).
Percent activity (% activity) in reducing the number of viable cells was calculated for each test compound as: % activity={(S^C−B)/(S^o−B)}×100 wherein S^C denotes signal measured in the presence of the compound being tested, S^o denotes signal measured in the absence of the compound being tested, and B denotes the background signal measured in blank wells containing medium only.
IC50 values were calculated using the software package Prism 3.0 (GraphPad software Inc., San Diego, Calif.), setting top value at 100 and bottom value at 0.

[2] = tested on: K11 HPV E7 transformed human keratinocyte line; assay: Secondary assay: cell proliferation WST-1, K11; assay type: cell-based; details: read-out: Cell Proliferation Inhibition WST-1 (IC50 unless otherwise specified) K11
HeLa cells = assay: Secondary assay: cell proliferation WST-1, HeLa; assay type: cell-based; details: Homo sapiens, 48 h, read-out: Cell Proliferation Inhibition WST-1 (IC50 unless otherwise specified) HeLa
Method in brief: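 Absorbance at 450 nm (reference 690 nm); % activity vs untreated after blank subtraction, IC50 fitted with top 100 and bottom 0.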

HDAC (HeLa cell extract) = assay: Primary assay: deacetylase activity, HeLa cell extract as source of HDAC; assay type: biochemical, human
Method in brief: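 Crude HeLa extract (freeze-thaw in 60 mM TrisCl pH 8.0, 450 mM NaCl, 30% glycerol) was incubated 1 h at 37° C with a [³H]acetyl-labelled histone H4 N-terminal peptide in 20 mM Tris pH 7.4, 10% glycerol.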

human HDAC1 = target: T1, human HDAC1 (Homo sapiens, UniProt Q13547); assay: Primary assay: deacetylase activity, recombinantly produced HDAC1; assay type: biochemical; details: recombinant HDAC1; read-out: HDAC Inhibition (IC50 unless otherwise specified) HDAC1
T1 construct: Full length human HDAC1 was cloned by PCR; Flag (C); His6 (from pAcHLT vector; purified on Ni-NTA) (N); made in house; host or cells: SF9 insect cells (baculovirus)
Text: (§1) Briefly, this assay relies on the release of radioactive acetate from a radioactively labelled histone fragment by the action of HDAC enzyme. Test compounds, which inhibit HDAC, reduce the yield of radioactive acetate. Signal (e.g., scintillation counts) measured in the presence and absence of a test compound provide an indication of that compound's ability to inhibit HDAC activity. Decreased activity indicates increased inhibition by the test compound.
(§2) The histone fragment was an N-terminal sequence from histone H4, and it was labelled with radioactively labelled acetyl groups using tritiated acetylcoenzyme A (coA) in conjunction with an enzyme which is the histone acetyltransferase domain of the transcriptional coactivator p300. […] The acetylated peptide was then separated from free acetyl coA by size exclusion chromatography on Sephadex G-15 (Sigma G-15-120), using distilled H2O as the mobile phase.
(§3) After purification of the radiolabelled histone fragment, it was incubated with a source of HDAC (e.g., an extract of HeLa cells (a rich source of HDAC), recombinantly produced HDAC1 or HDAC2) and any released acetate was extracted into an organic phase and quantitatively determined using scintillation counting. By including a test compound with the source of HDAC, that compound's ability to inhibit the HDAC was determined.
Full length human HDAC1 was cloned by PCR using a λgt11 Jurkat cDNA library (Clontech-HL5012b). The amplified fragment was inserted into the EcoRI-Sall sites of pFlag-CTC vector (Sigma-E5394), in frame with the Flag tag. A second PCR was carried out in order to amplify a fragment containing the HDAC1 sequence fused to the Flag tag.
(§4) Amplification of recombinant viruses was performed according to the Pharmingen Instruction Manual.
(§5) For protein production, 2×10^7 cells were infected with the appropriate recombinant virus for 3 days. Cells were then harvested and spun at 3,000 rpm for 5 minutes. They were then washed twice in PBS and resuspended in 2 pellet volumes of lysis buffer (25 mM HEPES pH 7.9, 0.1 mM EDTA, 400 mM KCl, 10% glycerol, 0.1% NP-40, 1 mM AEBSF). Resuspended cells were frozen on dry ice and thawed at 37° C. 3 times and centrifuged for 10 minutes at 14,000 rpm. […] Incubation was carried out at 4° C. for 1 hour on a rotating wheel. The slurry was then centrifuged at 500 g for 5 minutes. Beads were washed twice in 1 ml of wash buffer (25 mM HEPES pH7.9, 0.1 mM EDTA, 150 mM KCl, 10% glycerol, 0.1% NP-40, 1 mM AEBSF). Protein was eluted 3 times in 300 μl elution buffer (25 mM HEPES pH 7.9, 0.1 mM EDTA, 250 mM KCl, 10% glycerol, 0.1% NP-40, 1 mM AEBSF) containing increasing concentrations of imidazole: 0.2 M, 0.5 M and 1 M. Each elution was performed for 5 minutes at room temperature. Eluted protein was kept in 50% glycerol at −70° C.
(§6) A source of HDAC (e.g., 2 μL of crude HeLa extract, 5 μL of HDAC1 or HDAC2; in elution buffer, as above) was incubated with 3 μL of radioactively labelled peptide along with appropriate dilutions of candidate compounds (1.5 μL) in a total volume of 150 μL of buffer (20 mM Tris pH 7.4, 10% glycerol). The reaction was carried out at 37° C. for one hour, after which the reaction was stopped by adding 20 μL of 1 M HCl/0.4 M sodium acetate. […] Radioactivity was measured using a Tri-Carb 2100TR Liquid Scintillation Analyzer (Packard).
(§7) Percent activity (% activity) for each test compound was calculated as: % activity={(S^C−B)/(S^o−B)}×100 wherein S^C denotes signal measured in the presence of enzyme and the compound being tested, S^o denotes signal measured in the presence of enzyme but in the absence of the compound being tested, and B denotes the background signal measured in the absence of both enzyme and compound being tested.

human HDAC2 = target: T2, human HDAC2 (Homo sapiens, UniProt Q92769); assay: Primary assay: deacetylase activity, recombinantly produced HDAC2; assay type: biochemical; details: recombinant HDAC2; read-out: HDAC Inhibition (IC50 unless otherwise specified) HDAC2
T2 construct: Full length human HDAC2 was subcloned; Flag (C); His6 (from pAcHLT-A vector; purified on Ni-NTA) (N); made in house; host or cells: SF9 insect cells (baculovirus)
Text: as §1, §2, §3, §4, §5, §6, §7

[3] = Homo sapiens, Keratinocyte, 48 h
[4] = HeLa cell extract, read-out: HDAC Inhibition (IC50 unless otherwise specified) HeLa
[5] = Homo sapiens, Keratinocyte, NHEK-AD

T1 sequence (Q13547 whole entry): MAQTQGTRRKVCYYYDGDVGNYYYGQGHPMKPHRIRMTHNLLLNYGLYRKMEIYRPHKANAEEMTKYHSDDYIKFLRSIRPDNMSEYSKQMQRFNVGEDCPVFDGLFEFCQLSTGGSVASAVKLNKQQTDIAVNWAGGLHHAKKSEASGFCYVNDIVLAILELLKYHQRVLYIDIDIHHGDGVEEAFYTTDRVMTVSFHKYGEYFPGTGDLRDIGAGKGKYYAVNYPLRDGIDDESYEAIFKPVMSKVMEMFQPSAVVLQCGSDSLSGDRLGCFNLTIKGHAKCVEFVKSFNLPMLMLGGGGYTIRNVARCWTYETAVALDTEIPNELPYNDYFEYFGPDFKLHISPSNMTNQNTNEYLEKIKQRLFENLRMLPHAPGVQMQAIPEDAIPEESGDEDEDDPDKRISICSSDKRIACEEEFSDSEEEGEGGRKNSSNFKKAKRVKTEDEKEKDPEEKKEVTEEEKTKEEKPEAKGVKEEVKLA
T2 sequence (Q92769 whole entry): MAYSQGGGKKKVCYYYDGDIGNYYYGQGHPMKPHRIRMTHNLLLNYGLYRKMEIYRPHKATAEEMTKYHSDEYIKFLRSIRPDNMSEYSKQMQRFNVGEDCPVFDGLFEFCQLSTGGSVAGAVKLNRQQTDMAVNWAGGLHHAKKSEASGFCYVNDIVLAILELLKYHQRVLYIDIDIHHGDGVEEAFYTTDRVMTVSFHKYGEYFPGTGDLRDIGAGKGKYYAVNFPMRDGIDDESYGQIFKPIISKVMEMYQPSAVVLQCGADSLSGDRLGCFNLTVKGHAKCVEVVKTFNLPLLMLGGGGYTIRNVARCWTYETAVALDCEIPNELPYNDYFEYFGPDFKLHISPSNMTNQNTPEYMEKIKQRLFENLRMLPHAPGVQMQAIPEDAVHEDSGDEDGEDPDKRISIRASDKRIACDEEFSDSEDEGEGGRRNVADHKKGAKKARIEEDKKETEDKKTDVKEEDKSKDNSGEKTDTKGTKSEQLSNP

Nc1ccccc1NC(=O)c1ccc(CNC(=O)OCc2cccnc2)cc1 [MS-275, reference compound]
IC50 (JURKAT human T-cell line): 365 nM
IC50 ([1]; NHEK-AD): 3100 nM
IC50 ([2]; K11, 48 h): 9160 nM

O=C(/C=C/C#Cc1cccc(NS(=O)(=O)c2ccccc2)c1)NO [Oxamflatin, (2E)-5-[3-[(phenylsulfonyl)amino]phenyl]-pent-2-en-4-ynohydroxamic acid, reference compound]
IC50 (HeLa cells): 1100 nM
IC50 (JURKAT human T-cell line; Homo sapiens): 260 nM
IC50 ([1]; Homo sapiens, Keratinocyte): 3530 nM
IC50 [2, 3]: 4560 nM

O=C(/C=C/C=C/c1ccccc1)NCCCCCC(=O)NO [PX105553, 4-(2E)(4E)-5-Phenyl-penta-2,4-dienoic acid (5-hydroxycarbamoyl-pentyl)-amide]
IC50 (HeLa cells): 5700 nM
IC50 (HDAC (HeLa cell extract); [4]): 18 nM
IC50 (human HDAC1): 38 nM
IC50 (JURKAT human T-cell line; Homo sapiens): 3700 nM
IC50 [1, 5]: 2400 nM
IC50 (human HDAC2): 47 nM
IC50 [2, 3]: 7500 nM

CC(/C=C/C(=O)NCCCCCC(=O)NO)=C\c1ccccc1 [PX105829, (2E,4E)-4-Methyl-5-phenylpenta-2,4-dienoic acid (5-hydroxycarbamoylpentyl)amide]
IC50 (HeLa cells): 3800 nM
IC50 (HDAC (HeLa cell extract); [4]): 54 nM
melting point: 129 to 131 °C
IC50 (human HDAC1): 31 nM
IC50 (human HDAC2): 38 nM

O=C(/C=C/c1ccc2c(c1)OCO2)NCCCCCC(=O)NO [PX105831, (E)-3-Benzo[1,3]dioxol-5-yl-N-(5-hydroxycarbamoylpentyl)acrylamide]
IC50 (HeLa cells): 9000 nM
IC50 (HDAC (HeLa cell extract); [4]): 33 nM
melting point: 191 to 193 °C
IC50 (human HDAC1): 64 nM
IC50 (human HDAC2): 69 nM

O=C(/C=C/C=C/c1ccc(-c2ccccc2)cc1)NCCCCCC(=O)NO [PX105848, (2E,4E)-5-Biphenyl-4-yl-penta-2,4-dienoic acid (5-hydroxycarbamoyl-pentyl)-amide]
IC50 (HeLa cells): 4300 nM
IC50 (HDAC (HeLa cell extract); [4]): 22 nM
IC50 (HDAC (HeLa cell extract); comparative tables, HeLa cell extract, read-out: HeLa IC50): 22 nM
melting point: 222 to 224 °C
IC50 (human HDAC1): 25 nM
IC50 (human HDAC2): 56 nM

O=C(/C=C\C=C\c1ccc(Cl)cc1)NCCCCCC(=O)NO [PX105849, (2Z,4E)-5-(4-Chlorophenyl)penta-2,4-dienoic acid (5-hydroxycarbamoylpentyl)-amide]
IC50 (HeLa cells): 5300 nM
IC50 (HDAC (HeLa cell extract); [4]): 29 nM
melting point: 158 to 160 °C
IC50 (human HDAC1): 50 nM
IC50 (human HDAC2): 63 nM

O=C(/C=C/C=C/c1ccc(Cl)cc1)NCCCCCC(=O)NO [PX105850, (2E,4E)-5-(4-Chlorophenyl)penta-2,4-dienoic acid (5-hydroxycarbamoylpentyl)-amide]
IC50 (HeLa cells): 6300 nM
IC50 (HDAC (HeLa cell extract); [4]): 28 nM
melting point: 164 to 168 °C
IC50 (human HDAC1): 25 nM
IC50 (human HDAC2): 75 nM

O=C(/C=C/C=C/c1ccccc1)NCCCCCCCC(=O)NO [PX105851]
IC50 (HeLa cells): 4200 nM
IC50 (HDAC (HeLa cell extract); [4]): 18 nM
IC50 (HDAC (HeLa cell extract); comparative tables, HeLa cell extract, no unit in cell, read-out: HeLa IC50): 18 nM
melting point: 160 to 162 °C
IC50 (human HDAC1): 12 nM
IC50 (human HDAC2): 50 nM

O=C(/C=C/c1c[nH]c2ccccc12)NCCCCCC(=O)NO [PX116220, N-(5-Hydroxycarbamoyl-pentyl)-3-(1-N-indol-3-yl)-acrylamide]
IC50 (HeLa cells): 3700 nM
IC50 (HDAC (HeLa cell extract); [4]): 6.3 nM
melting point: 92 to 94 °C
IC50 (JURKAT human T-cell line; Homo sapiens): 4500 nM
IC50 [1, 5]: 2400 nM
IC50 [2, 3]: 9500 nM

O=C(CCCCCCC(=O)Nc1ccc2ccccc2c1)NO [PX116223, Octanedioic acid hydroxyamide naphthalen-2-ylamide]
IC50 (HeLa cells): < 310 nM
IC50 (HDAC (HeLa cell extract); [4]): < 12.5 nM
melting point: 142.5 to 144 °C
IC50 (JURKAT human T-cell line; Homo sapiens): 220 nM
IC50 [1, 5]: 1300 nM
IC50 [2, 3]: 1700 nM

O=C(/C=C/c1ccc2ccccc2c1)NCCCCCC(=O)NO [PX116232, E-N-(5-Hydroxycarbamoylpentyl)-3-naphthalen-2-yl-acrylamide]
IC50 (HeLa cells): 18300 nM
IC50 (HDAC (HeLa cell extract); [4]): 10 nM
IC50 (JURKAT human T-cell line; Homo sapiens): 7300 nM
IC50 [1, 5]: 1700 nM
IC50 [2, 3]: 2700 nM

O=C(C=C1c2ccccc2-c2ccccc21)NCCCCCC(=O)NO [PX117456, 6-(2-Fluoren-9-ylideneacetylamino)hexanoic acid hydroxyamide]
IC50 (HeLa cells): 650 nM
IC50 (HDAC (HeLa cell extract); read-out: HDAC Inhibition (IC50 unless otherwise specified) HeLa): 3 nM
IC50 (JURKAT human T-cell line; Homo sapiens): 180 nM
IC50 ([1]; Homo sapiens, Keratinocyte): 250 nM
IC50 [2, 3]: 740 nM

CC(/C=C/C(=O)NO)=C\[C@@H](C)C(=O)c1ccc(N(C)C)cc1 [TSA, trichostatin A, reference compound]
IC50 (HeLa cells): 350 nM
IC50 (JURKAT human T-cell line; Homo sapiens): 42 nM
IC50 ([1]; Homo sapiens, Keratinocyte): 200 nM
IC50 [2, 3]: 380 nM
